According to PMC4795541, “A Rapid and Quantitative Flow Cytometry Method for the Analysis of Membrane Disruptive Antimicrobial Activity” (PLoS ONE, 2016):
Where two headings read alike, the source gives them in different places. Marks after values point to notes of the source that are not given here. Where no end group is shown, it is not given here.

Assays:
[1] = tested on: S. aureus (MRSA) ATCC 43300
Excerpt: (§1) The bacterial strains; Fusobacterium nucleatum ATCC 25586, Streptococcus mutans Ingbritt, Staphylococcus aureus (MSSA) ATCC 29213; Staphylococcus aureus (MRSA) ATCC 43300; Enterococcus faecalis ATCC 29212; Enterobacter aerogenes ATCC 13048; Pseudomonas aeruginosa strain PAO1-LAC, ATCC 47085; Klebsiella pneumoniae ATCC 13883; Acinetobacter baumannii strain 2208, ATCC 19606; Escherichia coli ATCC 25922 lyophilised or glycerol stocks were obtained from the culture collection of the Oral Health Cooperative Research Centre, The Melbourne Dental School, University of Melbourne, Australia. These strains were selected for this study as they are widely used in antimicrobial studies and are considered to be important pathogens and major targets for antibiotic resistant studies. Bacteria were grown aerobically and maintained by passage at ambient temperature (E. coli, K. pneumoniae, A. baumannii and S. aureus strains) or at 37°C (P. aeruginosa, E. faecalis and E. aerogenes) on horse blood agar (10% v/v defibrinated horse blood, 4.4% w/v Oxoid Blood Agar Base No. 2). S. mutans and F. nucleatum were grown anaerobically (MK3 anaerobic workstation, Don Whitley Scientific Limited, England) and maintained by passage at 37°C on Todd Hewitt agar (3.6% w/v Oxoid Todd-Hewitt Broth, 1.5% w/v sucrose, 1.5% w/v BactoTM Agar, 0.8% w/v Oxoid Yeast Extract) or horse blood agar, respectively. For the antimicrobial peptide assays a 20 mL starter culture was produced by taking single colonies from blood or Todd Hewitt agar plates, respectively, to inoculate either: Luria Broth (LB; 1% w/v BactoTM Tryptone, 1% w/v NaCl, 0.5% w/v Oxoid Yeast Extract, pH 7.5, Thermo Scientific Pty, Ltd, Sydney, Australia) for bacteria; E. coli, K. pneumoniae, P. aeruginosa, A. baumannii, E. faecalis, E. aerogenes and S. aureus which were grown aerobically at 37°C, or Todd Hewitt broth (3.6% w/v Oxoid Todd-Hewitt Broth, 1.5% w/v sucrose, 0.8% w/v Oxoid Yeast 9 Extract) for S. mutans, or Brain Heart Infusion broth (BHI; 3.7% w/v Oxoid BHI, 0.05% w/v L-cysteine) for F. nucleatum which were both grown anaerobically at 37°C. After overnight incubation, 0.5–2.0 mL of the starter culture was used to inoculate the appropriate fresh broth (200 mL) and growth monitored at 650 nm using a spectrophotometer (model 275E; Perkin-Elmer, Sydney, Australia) with culture purity checked by microscopic examination and culture. Bacteria were harvested during late exponential growth phase and viability and bacteria/mL determined using a BacLight viability kit (Invitrogen, Sydney, Australia) and a Quanta SC-MPL flow cytometer (Beckman coulter Pty, Ltd, Sydney, Australia).
(§2) Antibacterial assays were undertaken to determinate the minimum inhibitory concentration (MIC), minimum bactericidal concentration (MBC) and minimum membrane disruptive concentration (MDC) of each of the antimicrobial peptides (AMP) and AMP analogues (S1 Table). For each bacterim a stock solution (2.5 × 10^6 cells/mL) in the respective media was made and an aliquot incubated with AMPs within 15 minutes from viable cell count and stock preparation. All AMPs were dissolved in DMSO and a 500 μM stock solution prepared by adding the respective media and serial dilutions (250–0.244 μM) of the AMP in media (100 μL/well) made just prior addition of bacteria. […] One hundred microliter aliquots of the bacterial stock solution (2.5 × 10^5 cells/well) were added to the AMP serial dilutions and incubated at 37°C for 90 min. Assay preparation and incubations were conducted in aerobic or anaerobic conditions dependent on the bacteria. Bacteria were also incubated in the absence of AMP to serve as a growth control for the assay. After the 90 minute incubation period the antimicrobial activity (MIC, MBC and MDC) was determined as follows;
(§3) For MIC the CLSI broth microdilution assay was followed as we have previously described.

[2] = tested on: A. baumannii strain 2208, ATCC 19606
Excerpt: as §1, §2, §3

K. pneumoniae ATCC 13883 [3] = tested on: K. pneumoniae ATCC 13883
Excerpt: as §1, §2, §3

E. faecalis ATCC 29212 [4] = tested on: E. faecalis ATCC 29212
Excerpt: as §1, §2, §3

[5] = tested on: P. aeruginosa strain PAO1-LAC, ATCC 47085
Excerpt: as §1, §2, §3

E. coli ATCC 25922 [6] = tested on: E. coli ATCC 25922
Excerpt: as §1, §2, §3

E. aerogenes ATCC 13048 [7] = tested on: E. aerogenes ATCC 13048
Excerpt: as §1, §2, §3

[8] = tested on: S. aureus (MSSA) ATCC 29213
Excerpt: as §1, §2, §3

[9] = tested on: S. aureus (MRSA) ATCC 43300; remark: listed apart in the source
Excerpt: as §1, §2
(§4) For determination of MBC, the CLSI protocol was followed, with the modifications being that due to the rapid action of the AMPs the assay incubation time was shortened from 16–20 hours to 90 minutes.

[10] = tested on: A. baumannii strain 2208, ATCC 19606; remark: listed apart in the source
Excerpt: as §1, §2, §4

K. pneumoniae ATCC 13883 [11] = tested on: K. pneumoniae ATCC 13883; remark: listed apart in the source
Excerpt: as §1, §2, §4

E. faecalis ATCC 29212 [12] = tested on: E. faecalis ATCC 29212; remark: listed apart in the source
Excerpt: as §1, §2, §4

[13] = tested on: P. aeruginosa strain PAO1-LAC, ATCC 47085; remark: listed apart in the source
Excerpt: as §1, §2, §4

E. coli ATCC 25922 [14] = tested on: E. coli ATCC 25922; remark: listed apart in the source
Excerpt: as §1, §2, §4

E. aerogenes ATCC 13048 [15] = tested on: E. aerogenes ATCC 13048; remark: listed apart in the source
Excerpt: as §1, §2, §4

[16] = tested on: S. aureus (MSSA) ATCC 29213; remark: listed apart in the source
Excerpt: as §1, §2, §4

S. mutans Ingbritt [17] = conditions: Ingbritt, 24 h
Excerpt: as §1, §2, §3

F. nucleatum ATCC 25586 [18] = conditions: ATCC 25586, 24 h
Excerpt: as §1, §2, §3

S. mutans Ingbritt [19] = conditions: Ingbritt
Excerpt: as §1, §2, §4

F. nucleatum ATCC 25586 [20] = conditions: ATCC 25586
Excerpt: as §1, §2, §4

[21] = S. aureus (MRSA) ATCC 43300, 90 min incubation, average of 3 assays ± SD
[22] = A. baumannii strain 2208, ATCC 19606, 90 min incubation, average of 3 assays ± SD
[23] = K. pneumoniae ATCC 13883, 90 min incubation, average of 3 assays ± SD
[24] = E. faecalis ATCC 29212, 90 min incubation, average of 3 assays ± SD
[25] = P. aeruginosa PAO1-LAC, ATCC 47085, 90 min incubation, average of 3 assays ± SD
[26] = E. coli ATCC 25922, 90 min incubation, average of 3 assays ± SD
[27] = E. aerogenes ATCC 13048, 90 min incubation, average of 3 assays ± SD
[28] = S. aureus (MSSA) ATCC 29213, 90 min incubation, average of 3 assays ± SD

Substance: GLLSVLGSVAKHVLPHVVPVIAEHL-NH2 [Caerin 1.1]
- MIC [1, 21]: 4.9±0.4^e μM
- MIC [2, 22]: 3.1 ± 0.4 µM
- MIC (K. pneumoniae ATCC 13883 [3]; [23]): 14.6 ± 5.1 µM
- MIC (E. faecalis ATCC 29212 [4]; [24]): 27.1 ± 15.0 µM
- MIC [5, 25]: 39.3 ± 21.4 µM
- MIC (E. coli ATCC 25922 [6]; [26]): 8.45±0.2^e μM
- MIC (E. aerogenes ATCC 13048 [7]; [27]): 40.0 ± 8.2 µM
- MIC [8, 28]: 5.5±0.2^e μM
- MBC [9, 21]: 13.9 ± 2.4 µM
- MBC [10, 22]: 3.0 ± 1.0 µM
- MBC (K. pneumoniae ATCC 13883 [11]; [23]): 20.0 ± 7.1 µM
- MBC (E. faecalis ATCC 29212 [12]; [24]): 17.5 ± 10.6 µM
- MBC [13, 25]: 51.4 ± 27.1 µM
- MBC (E. coli ATCC 25922 [14]; [26]): 15.6 ± 0.4 µM
- MBC (E. aerogenes ATCC 13048 [15]; [27]): 51.1 ± 6.3 µM
- MBC [16, 28]: 9.9 ± 2.3 µM

Substance: KNLRRIIRKIIHIIKKYG [Ovispirin]
- MIC ([1]; ATCC 43300, 24 h): >250 µM
- MIC ([2]; ATCC 19606, 24 h): 2.6 ± 1.1 µM
- MIC (K. pneumoniae ATCC 13883 [3]; ATCC 13883, 24 h): 7.7±0.1^e μM
- MIC (S. mutans Ingbritt [17]): 16.5 ± 1.7 µM
- MIC (E. faecalis ATCC 29212 [4]; ATCC 29212, 24 h): 78.8 ± 40.7 µM
- MIC (F. nucleatum ATCC 25586 [18]): 4.2 ± 2.9 µM
- MIC ([5]; PAO1, 24 h): 90.6 ± 7.5 µM
- MIC (E. coli ATCC 25922 [6]; ATCC 25922, 24 h): 9.6 ± 3.9 µM
- MIC (E. aerogenes ATCC 13048 [7]; ATCC 13048, 24 h): 45.9±13.8^e μM
- MIC ([8]; ATCC 29213, 24 h): 138.5 ± 24.5 µM
- MBC ([9]; ATCC 43300): >250 µM
- MBC ([10]; ATCC 19606): 2.0 ± 1.0 µM
- MBC (K. pneumoniae ATCC 13883 [11]; ATCC 13883): 21.7 ± 3.7 µM
- MBC (S. mutans Ingbritt [19]): 11.3 ± 5.3 µM
- MBC (E. faecalis ATCC 29212 [12]; ATCC 29212): 72.4 ± 13.7 µM
- MBC (F. nucleatum ATCC 25586 [20]): 4.7 ± 3.5 µM
- MBC ([13]; PAO1): 95.9 ± 9.8 µM
- MBC (E. coli ATCC 25922 [14]; ATCC 25922): 8.5 ± 0.7 µM
- MBC (E. aerogenes ATCC 13048 [15]; ATCC 13048): 135.2 ± 26.3 µM
- MBC ([16]; ATCC 29213): 139.7 ± 25.8 µM
